From patent publication US12517130B2, “Isoindoline derivatives which bind to an ATP binding site” (NeoPhore Limited, priority 2020, dated 2026)
Counter-ions that a name gives are not always drawn.

Key:
[1] = molecular target: T1, N-terminal domain of MLH1 (Homo sapiens, UniProt P40692); test: Surface plasmon resonance binding to N-terminal domain of MLH1
T1 construct: by surface plasmon resonance to the N-terminal domain of MLH1
T1 sequence (P40692 15-340 limits assumed): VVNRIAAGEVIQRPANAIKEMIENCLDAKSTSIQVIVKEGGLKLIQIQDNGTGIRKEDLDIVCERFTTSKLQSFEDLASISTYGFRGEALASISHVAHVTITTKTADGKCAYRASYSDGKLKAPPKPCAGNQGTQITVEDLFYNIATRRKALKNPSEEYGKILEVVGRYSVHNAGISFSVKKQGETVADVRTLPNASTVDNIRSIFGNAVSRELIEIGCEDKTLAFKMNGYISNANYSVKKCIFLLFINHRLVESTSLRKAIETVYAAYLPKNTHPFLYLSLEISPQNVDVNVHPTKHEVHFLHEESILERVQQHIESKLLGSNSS
Excerpt: (§1) These probes are therefore unsuitable for use as fluorescence polarisation screening tools.

MLH1 = molecular target: T2, MLH1 (Homo sapiens, UniProt P40692); test: Fluorescence polarisation assay of commercially available ATP-derived fluorescent probes, according to the type of protocol exemplified; assay type: binding; settings: substance used as the fluorescent probe
T2 sequence (P40692 15-340 limits assumed): T1 sequence (P40692 15-340 limits assumed)
Description: as §1
An 11 point 1 in 2 serial dilution of protein (either recombinant N-terminal PMS2 (residues 1-365) or recombinant N-terminal MLH1 (residues 15-340)) in assay buffer (25 mM HEPES, pH 7.5, 250 mM NaCl, 10 mM MgCl2, 0.01% Triton X-100, 5 mM Dithiothreitol) was constructed in a clear polypropylene plate (Greiner Bio-One, item number 784201). The top concentration of the serial dilution was 2 μM. The 12th concentration point was buffer only (no protein control).
The serial dilution was used as the 2× protein and 20 μL was added to a Black Fluotrac 200 384-well medium binding plate (Greiner Bio-One, item number 781076). Plates were centrifuged for 1 minute at 250×g and were incubated at room temperature for 30 minutes prior to the addition of 20 μL of 2× (either 5 nM or 2 nM) of probe in assay buffer (prepared from a 100 μM DMSO stock) with a MultiDrop Combi (ThermoFisher).
Compound plates were centrifuged for 1 minute at 250×g for 1 minute and were incubated at room temperature for 1 hour before being read on a PheraStar FSX (fitted with 384-well aperture spoon and appropriate FP module). The gain and focus were adjusted before each plate was read so that the polarisation of the no protein control was equal to 35 mP. Data was plotted and analysed in GraphPad Prism 8.1.0 (FIGS. 6-9).

[2] = molecular target: T3, recombinant N-terminal MLH1 (residues 15-340) (Homo sapiens, UniProt P40692); test: Assay A: Fluorescence Polarisation Assay for MLH1 (displacement of Example 1 probe); assay type: binding; settings: Assay Protocol A; 100 nM N-terminal MLH1, 5 nM Example 1 probe; FIG. 10
T3 construct: recombinant N-terminal MLH1 (residues 15-340) in assay buffer
T3 sequence (P40692 15-340): T1 sequence (P40692 15-340 limits assumed)
Description: Assay A: Fluorescence Polarisation Assay for MLH1
Test compounds, as 10 mM DMSO stocks, were dispensed into a Black Fluotrac 200 384-well medium binding plate (Greiner Bio-One, item number 781076) using a Labcyte Echo acoustic liquid handler. Test compounds were added to wells in columns 1-22 whilst DMSO was added to wells in columns 23 and 24 in order to normalise the plate. 20 μL of a 2× solution (200 nM) of recombinant N-terminal MLH1 (residues 15-340) in assay buffer (25 mM HEPES, pH 7.5, 250 mM NaCl, 10 mM MgCl2, 0.01% Triton X-100, 5 mM Dithiothreitol) was added to all wells in columns 1-23 and 20 μL assay buffer was added to all wells in column 24 using a MultiDrop Combi (ThermoFisher). […] Compound plates were centrifuged for 1 minute at 250×g for 1 minute and were incubated at room temperature for 1 hour before being read on a PheraStar FSX (fitted with 384-well aperture spoon and 590 675 675 FP optic module). The gain and focus were adjusted before each plate was read so that the polarisation of a no enzyme control (column 24) was equal to 35 mP. […]

[3] = molecular target: T4, recombinant N-terminal PMS2 (residues 1-365) (Homo sapiens, UniProt P54278); test: Assay C: Fluorescence Polarisation Assay for PMS2 (displacement of Example 5 probe); assay type: binding; settings: Assay Protocol C; 10 nM N-terminal PMS2, 5 nM Example 5 probe; FIG. 11
T4 construct: recombinant N-terminal PMS2 (residues 1-365) in assay buffer
T4 sequence (P54278 1-365): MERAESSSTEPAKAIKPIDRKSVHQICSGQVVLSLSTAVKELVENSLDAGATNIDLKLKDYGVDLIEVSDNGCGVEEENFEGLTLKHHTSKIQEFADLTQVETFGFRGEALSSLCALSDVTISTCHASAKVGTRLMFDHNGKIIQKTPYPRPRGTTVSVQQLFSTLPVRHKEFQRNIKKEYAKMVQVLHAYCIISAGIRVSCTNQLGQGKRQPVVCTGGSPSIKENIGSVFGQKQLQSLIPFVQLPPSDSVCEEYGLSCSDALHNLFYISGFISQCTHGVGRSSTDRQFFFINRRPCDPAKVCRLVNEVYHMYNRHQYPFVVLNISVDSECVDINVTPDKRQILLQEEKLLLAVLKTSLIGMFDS
Description: Assay C: Fluorescence Polarisation Assay for PMS2
Test compounds, as 10 mM DMSO stocks, were dispensed into a Black Fluotrac 200 384 well medium binding plate (Greiner Bio-One, item number 781076) using a Labcyte Echo acoustic liquid handler. For single point screening, test compounds were added to wells in columns 1-22 whilst DMSO was added to wells in columns 23 and 24 in order to normalise the plate. For potency determination, serial dilutions of test compounds were added to wells in columns 3-22 and DMSO volume was normalised across the plate.
20 μL of a 2× solution (20 nM) of recombinant N-terminal PMS2 (residues 1-365) in assay buffer (25 mM HEPES, pH 7.5, 250 mM NaCl, 10 mM MgCl2, 0.01% Triton X-100, 5 mM Dithiothreitol) was added to all wells in columns 2-23 for potency determination or columns 1-23 for single point screening. 20 μL assay buffer was added to all wells in columns 1 and 24 (column 24 only for single point screening) using a MultiDrop Combi (ThermoFisher). […]
Compound plates were centrifuged for 1 minute at 250×g and were incubated at room temperature for 1 hour before being read on a PheraStar FSX (fitted with 384-well aperture spoon and 540 590 590 FP optic module). The gain and focus were adjusted before each plate was read so that the polarisation of a no enzyme control (column 24) was equal to 35 mP. […]

| binding by surface plasmon resonance [1] | signal in fluorescence polarisation assay (MLH1) | IC50 [2] | IC50 [3] | SMILES |
| --- | --- | --- | --- | --- |
| very weak binding | no signal |  |  | CC1=CC(C)=[N+]2C1=Cc1ccc(CNC(=O)CSP(=O)(O)OP(=O)(O)OP(=O)(O)OC[C@H]3O[C@@H](n4cnc5c(N)ncnc54)[C@H](O)[C@@H]3O)n1[B-]2(F)F [BODIPY-FL-ATP-gamma-S] |
|  |  | 10.7 µM | 179 nM | CC(C)c1cc(C(=O)N2Cc3ccc(CN4CCNCC4)cc3C2)c(O)cc1O [compound AB, (2,4-dihydroxy-5-isopropylphenyl)(5-(piperazin-1-ylmethyl)isoindolin-2-yl)methanone hydrochloride] |
